Data reported in patent US20220039384A1, “SELECTIVE WEED CONTROL WITH HALAUXIFEN OR 4-AMINO-3-CHLORO-5-FLUORO-6-(4-CHLORO-2-FLUORO-3-METHOXYPHENYL) PYRIDINE-2-CARBOXYLIC ACID OR DERIVATIVES THEREOF IN VINEYARDS OR PERENNIAL CROPS” (Corteva Agriscience LLC, priority 2013, published 2022).

How the values were obtained:
[1] = tested on: commercially relevant broadleaf and grass weeds; assay: Pre- and post-emergence weed control, general statement; format: in vivo; conditions: application rate of 2.5 to 50 g ai/ha; pre-emergence or post-emergence application
Description: (§1) Additional examples of application rates for Compound I as a pre-emergence and post-emergence application include 0.25 to 50 g ae/ha, 0.25 to 45 g ae/ha, 0.25 to 40 g ae/ha, 0.25 to 35 g ae/ha, 0.25 to 30 g ae/ha, 0.25 to 25 g ae/ha, 0.25 to 20 g ae/ha, 0.25 to 15 g ae/ha, 0.25 to 10 g ae/ha, 0.25 to 5 g ae/ha, 2.5 to 50 g ae/ha, 5 to 50 g ae/ha, 10 to 50 g ae/ha, 15 to 50 g ae/ha, 20 to 50 g ae/ha, 25 to 50 g ae/ha, 30 to 50 g ae/ha, 35 to 50 g ae/ha, 40 to 50 g ae/ha, 45 to 50 g ae/ha, 5 to 40 g ae/ha, 10 to 40 g ae/ha, 15 to 40 g ae/ha, 20 to 40 g ae/ha, 25 to 40 g ae/ha, 30 to 40 g ae/ha, 35 to 40 g ae/ha, 2.5 to 35 g ae/ha, 2.5 to 30 g ae/ha, 2.5 to 25 g ae/ha, 2.5 to 20 g ae/ha, 2.5 to 15 g ae/ha, 2.5 to 10 g ae/ha, 2.5 to 5 g ae/ha, 5 to 35 g ae/ha, 10 to 30 g ae/ha, 15 to 25 g ae/ha, and 15 to 20 g ae/ha. Further examples of application rates for Compound I as a pre-emergence and post-emergence application include 0.25 g ae/ha, 0.5 g ae/ha, 0.75 g ae/ha, 1 g ae/ha, 1.25 g ae/ha, 1.5 g ae/ha, 1.75 g ae/ha, 2 g ae/ha, 2.25 g ae/ha, 2.5 g ae/ha, 3 g ae/ha, 4 g ae/ha, 5 g ae/ha, 6 g ae/ha, 7 g ae/ha, 8 g ae/ha, 9 g ae/ha, 10 g ae/ha, 12 g ae/ha, 14 g ae/ha, 16 g ae/ha, 18 g ae/ha, 20 g ae/ha, 22 g ae/ha, 24 g ae/ha, 26 g ae/ha, 28 g ae/ha, 30 g ae/ha, 32 g ae/ha, 34 g ae/ha, 36 g ae/ha, 38 g ae/ha, 40 g ae/ha, 42 g ae/ha, 44 g ae/ha, 46 g ae/ha, 48 g ae/ha, and 50 g ae/ha. […]

[2] = tested on: grapevines and perennial crops; assay: Crop safety, general statement; format: in vivo; conditions: post-emergence application rates of ≤20 g ae/ha; dormant application or spring application directed under the crops
Description: as §1

VITSS (Vitis spp, grape) = conditions: in vivo
Method: Small plot research experiments were conducted in Fresno, Calif., USA to evaluate the pre-emergence and post-emergence herbicidal weed control activity and the vines crop tolerance to pre-emergence and post-emergence application of Compound I and Compound II to the weeds. Application water volume of 100 to 187 liters per hectare (L/ha) was used for all experiments. All treatments were applied with a standard small plot carbon dioxide (CO2) backpack sprayer. All treatments were tank-mixed with Crop Oil Concentrate (COC), a well known adjuvant, at 2.34 L/ha. Experimental emulsifiable concentrate (EC) formulations were used for Compounds I and II. The dimethylammonium (DMA) salt of glyphosate was used in all trials. Pindar® GT is a commercial formulation containing a pre-mix of penoxsulam+oxyfluorfen (10+476 grams of active ingredient per liter (g ai/L), respectively). Vine crop stage was dormant (no leaves on the vines during the winter) or early spring growth at the time of Compound I or Compound II application. Generally, weeds were not emerged for the pre-emergence treatments or were at the two to six-leaf stage at the time of the post-emergence herbicide application. […]

[3] = tested on: EROCI (Erodium cicutarium, redstem filaree); assay: Field trial, post-emergence directed spring application (April), California vineyards: visual weed control; format: in vivo; conditions: 35 g ai/ha
Description: (§2) As used herein, selective pre- and post-emergence control of undesirable vegetation means preventing, reducing, killing, or otherwise adversely modifying the development of the undesirable vegetation in the presence of crop plants with limited adverse effect on the crop plants. For example, a broadleaf weed control of 80% (rated visually) with crop injury of less than or equal to 20% (rated visually) would constitute selective control. In some embodiments the adverse effect on crop plants is limited to less than 10% visually rated crop injury. Visual crop injury is a composite rating accounting for all phytotoxic effects including chlorosis, necrosis, growth inhibition, epinasty, delays in maturity and seed or fruit deformity. Visual weed control is a composite rating accounting for reductions in pest plant biomass and/or stand reduction.
(§3) Small plot research experiments were conducted in Fresno, Calif., USA to evaluate the pre-emergence and post-emergence herbicidal weed control activity and the vines crop tolerance to pre-emergence and post-emergence application of Compound I and Compound II to the weeds. Application water volume of 100 to 187 liters per hectare (L/ha) was used for all experiments. All treatments were applied with a standard small plot carbon dioxide (CO2) backpack sprayer. All treatments were tank-mixed with Crop Oil Concentrate (COC), a well known adjuvant, at 2.34 L/ha. Experimental emulsifiable concentrate (EC) formulations were used for Compounds I and II. The dimethylammonium (DMA) salt of glyphosate was used in all trials. Pindar® GT is a commercial formulation containing a pre-mix of penoxsulam+oxyfluorfen (10+476 grams of active ingredient per liter (g ai/L), respectively). Vine crop stage was dormant (no leaves on the vines during the winter) or early spring growth at the time of Compound I or Compound II application. Generally, weeds were not emerged for the pre-emergence treatments or were at the two to six-leaf stage at the time of the post-emergence herbicide application.
(§4) Tables 1, 2 and 6 provide weed control results from pre-emergence applications of Compounds I and/or II prior to weed emergence; Tables 4, 7 and 8 provide weed control results from post-emergence applications of Compounds I and/or II applied to actively growing weeds; Tables 3 and 5 provide vine response data from pre-emergence and post-emergence applications of Compound I respectively.

[4] = tested on: MALPA (Malva parviflora, smallflower malva); assay: as above; format: in vivo; conditions: 35 g ai/ha
Description: as §2, §3, §4

[5] = tested on: AGRRE (Agropyron repens, quackgrass); assay: as above; format: in vivo; conditions: 35 g ai/ha
Description: as §2, §3, §4

[6] = tested on: PANCA (Panicum capillare, witchgrass); assay: as above; format: in vivo; conditions: 35 g ai/ha
Description: as §2, §3, §4

[7] = tested on: ERIBO (Conyza bonariensis, hairy fleabane); assay: as above; format: in vivo; conditions: 35 g ai/ha
Description: as §2, §3, §4

[8] = tested on: SETFA (Setaria faberi, giant foxtail); assay: as above; format: in vivo; conditions: 35 g ai/ha
Description: as §2, §3, §4

SMILES | efficacy on commercially relevant broadleaf and grass weeds [1] | crop injury to grapevines and perennial crops [2] | VITSS 60 DAA Node Count (VITSS (Vitis spp, grape)) | VITSS 60 DAA Vine Length (cm) (VITSS (Vitis spp, grape)) | % Visual Control 60 DAA EROCI [3] [%] | % Visual Control 60 DAA MALPA [4] [%] | % Visual Control 60 DAA AGRRE [5] [%] | % Visual Control 60 DAA PANCA [6] [%] | % Visual Control 60 DAA ERIBO [7] [%] | % Visual Control 60 DAA SETFA [8] [%]
COc1c(Cl)ccc(-c2nc(C(=O)O)c(Cl)c(N)c2F)c1F [Compound II, 4-amino-3-chloro-5-fluoro-6-(4-chloro-2-fluoro-3-methoxyphenyl)pyridine-2-carboxylic acid] | highly efficacious | little to no crop injury |  |  |  |  |  |  |  | 
COc1cnc(OC)n2nc(NS(=O)(=O)c3c(OCC(F)F)cccc3C(F)(F)F)nc12 [Penoxsulam, reference compound] |  |  | 20 | 89 | 87 | 85 | 87 | 85 | 85 | 97
